Like-named read-outs stand apart in the source and are kept apart here.
How the values were obtained:
recombinant ovine COX-2 [1] = target: T1, recombinant ovine COX-2 (Ovis aries, UniProt P79208); test: COX-2 peroxidase assay, high throughput (Example 2); format: biochemical; details: 20 μg/mL
T1 construct: purchased Cayman
T1 sequence (P79208 17-603): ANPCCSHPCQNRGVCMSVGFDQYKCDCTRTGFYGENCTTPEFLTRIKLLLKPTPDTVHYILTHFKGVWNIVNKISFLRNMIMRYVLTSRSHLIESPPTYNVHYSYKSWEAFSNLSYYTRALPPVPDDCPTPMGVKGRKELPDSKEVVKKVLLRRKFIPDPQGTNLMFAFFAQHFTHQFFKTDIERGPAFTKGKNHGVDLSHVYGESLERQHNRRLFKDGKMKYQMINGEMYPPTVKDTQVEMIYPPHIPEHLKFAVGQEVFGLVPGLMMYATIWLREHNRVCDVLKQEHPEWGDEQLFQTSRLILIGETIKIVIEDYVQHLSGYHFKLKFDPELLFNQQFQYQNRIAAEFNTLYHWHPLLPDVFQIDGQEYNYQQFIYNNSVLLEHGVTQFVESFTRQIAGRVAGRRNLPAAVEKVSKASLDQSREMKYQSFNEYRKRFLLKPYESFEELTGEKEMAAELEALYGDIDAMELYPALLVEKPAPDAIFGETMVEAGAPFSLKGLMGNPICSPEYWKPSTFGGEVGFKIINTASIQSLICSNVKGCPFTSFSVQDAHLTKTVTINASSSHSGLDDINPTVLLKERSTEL
Excerpt: Peroxidase Assay. The assay to detect inhibitors of COX-2 was modified for a high throughput platform (Raz). […] Luminescence was then read using a Wallac Victor 2 plate reader. […] Data is presented as the percent of peroxidase activity relative to the recombinant ovine COX-2 enzyme and substrate alone.

Ovine COX-1 [2] = target: T2, Ovine COX-1 (Ovis aries, UniProt P05979); test: COX-1 peroxidase assay (Example 2 method); format: biochemical; details: read-out: Inhibition of COX-1
T2 sequence (P05979 25-600): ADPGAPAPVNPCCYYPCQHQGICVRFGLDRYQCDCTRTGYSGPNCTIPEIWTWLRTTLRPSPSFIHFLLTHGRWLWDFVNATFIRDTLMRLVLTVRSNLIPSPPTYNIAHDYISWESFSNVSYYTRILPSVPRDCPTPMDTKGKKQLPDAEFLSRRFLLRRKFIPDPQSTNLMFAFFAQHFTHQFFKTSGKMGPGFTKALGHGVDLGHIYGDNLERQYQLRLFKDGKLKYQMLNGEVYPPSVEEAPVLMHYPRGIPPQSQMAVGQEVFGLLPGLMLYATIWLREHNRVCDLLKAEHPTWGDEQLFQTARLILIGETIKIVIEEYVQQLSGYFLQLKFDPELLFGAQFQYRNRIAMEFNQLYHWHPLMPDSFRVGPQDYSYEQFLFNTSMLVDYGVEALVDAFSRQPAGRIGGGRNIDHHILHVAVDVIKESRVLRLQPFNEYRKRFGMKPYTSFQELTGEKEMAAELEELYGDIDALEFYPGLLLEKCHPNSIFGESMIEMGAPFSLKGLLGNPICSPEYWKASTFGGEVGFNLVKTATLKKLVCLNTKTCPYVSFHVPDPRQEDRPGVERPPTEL
Excerpt: Peroxidase Assay. The assay to detect inhibitors of COX-2 was modified for a high throughput platform (Raz). […] Luminescence was then read using a Wallac Victor 2 plate reader.
Comparison of the relative inhibition of the COX-1 and COX-2 isoforms requires the generation of IC50 values for each of these enzymes. […] Examination of the HTP fractions and purified compounds from these fractions is necessary to determine the true specificity of inhibition for these extracts and compounds.

COX-1 = details: cited from earlier work
colorectal cancer = details: in vivo; cited from earlier work
[3] = Clinical study, weight and BMI; format: in vivo, human; details: 200 mg/day
Procedure: Additional measurements taken during the clinical trial were height and weight. All subjects in all groups (see Example 20) were measured for height and weight at 30 and 90 days of treatment. The subjects were given no recommendations on diet or exercise in order not to bias the results toward reduction of BMI and weight loss. Table 14 illustrates the changes in weight and BMI that occurred after treatment for 30 and 90 days.

[4] = system: subjects with rheumatoid arthritis or osteoarthritis of the knee and/or hip; test: Clinical study, WOMAC Osteo-Arthritis Index; format: in vivo, human; details: 200 mg/day; vs baseline; completers only
Excerpt: This clinical study was a single-center, randomized, double-blind, placebo-controlled study. Sixty subjects (n=60) with rheumatoid arthritis or osteoarthritis of the knee and/or hip were randomly placed into one of the following four groups:
Subjects were sex-matched and recruited from ages 40 to 75. […] Subjects taking NSAIDs engaged in a two-week washout period before beginning the study. Physical activity was not restricted, nor were the subjects given any advice as to diet. Subjects were free to withdraw from the trial at any time for any reason. The efficacy of the treatments was evaluated at 30, 60 and 90 days of oral administration by physicians, using the Western Ontario and McMaster Universities (WOMAC) Osteo-Arthritis Index (See Lingard et al. (2001) J. Bone & Joint Surg. 83:1856-1864; Soderman and Malchau (2000) Acta Orthop. Scand. 71(1):39-46). This protocol was reviewed and approved by an IRB board from University of Montreal.
The WOMAC was administered to subjects preferably in the doctor's office. They were asked to read and respond to a questionnaire on their own or via proxy in the waiting room of the doctor's office or were interviewed by project personnel over the telephone and the data were transcribed in the computer database. This offered a stable environment among patients and reduced the possibility of bias due to different home environments among patients. Between groups differences for all measurements were evaluated with One-Way Analysis of Variance and Tukey's Least Significant Difference for multiple comparisons. All questions were assigned a weight from 0 to 4 depending on the severity of pain, stiffness or impaired function. These values were then converted to percentages normalized to 100 and reported as WOMAC scores. Higher values are indicative of greater impairment. […] The lower the score, the less pain and stiffness and better function a patient has.

mouse = details: oral, 100 mg/kg; cited from earlier work
[5] = system: LTB4 synthesis (5-LO pathway) in HT-29 cells; test: LTB4 ELISA in HT-29 cells; format: cell-based; details: 3 μg/mL, 48 hrs; Univestin ratio 80:20
Procedure: A competitive ELISA for LTB4 (LTB4; Neogen, Inc., Cat #4061 10) was used to assess the effect of Univestin™ on newly synthesized levels of LTB4 present in each cell line as a measure of Univestin™'s inhibitory effect on the 5-LO pathway. The assay was performed in duplicate by adding 160,000 to 180,000 cells per well in 6-well plates. […] Each treated cell line was then harvested by centrifugation and disrupted by gentle dounce homogenization lysis in physiological buffers.

potato 5-lipoxygenase = test: Lipoxygenase Inhibitor Screening Assay with potato 5-LO; format: biochemical
Excerpt: As noted above, one of the most important pathways involved in the inflammatory response is produced by non-heme, iron-containing lipoxygenases (5-LO, 12-LO, and 15-LO), which catalyze the addition of molecular oxygen onto fatty acids such as AA (AA) to produce the hydroperoxides 5-, 12- and 15-HPETE, which are then converted to leukotrienes. There were early indications that the flavan extract from A. catechu may provide some degree of 5-LO inhibition, thereby preventing the formation of 5-HPETE. […] The 15-LO from soybeans normally used in the kit was replaced with potato 5-LO, after a buffer change from phosphate to a tris-based buffer using microfiltration was performed. This assay detects the formation of hydroperoxides through an oxygen sensing chromagen.

recombinant ovine COX-2 [6] = target: T1, recombinant ovine COX-2; test: COX-2 peroxidase activity IC50 assay with TMPD (Example 6); format: biochemical
Procedure: (§1) A cleavable, peroxide chromophore was included in the assay to visualize the peroxidase activity of each enzyme in the presence of arachidonic acid as a cofactor. Typically, the assays were performed in a 96-well format. Each inhibitor, taken from a 10 mg/mL stock in 100% DMSO, was tested in triplicate at room temperature using the following range of concentrations: 0, 0.1, 1, 5, 10, 20, 50, 100, and 500 μg/mL. […] The components were mixed for 10 seconds on a rotating platform, after which 20 μL of 2 mM N,N,N′N′-Tetramethyl-p-phenylenediamine dihydrochloride (TMPD) and 20 μL of 1.1 mM AA was added to initiate the reaction. The plate was shaken for 10 seconds and then incubated for 5 minutes before reading the absorbance at 570 nm. The inhibitor concentration vs. percentage inhibition was plotted and the IC50 determined by taking the half-maximal point along the isotherm and intersecting the concentration on the x-axis. The IC50 was then normalized to the number of enzyme units in the assay.

Ovine COX-1 [7] = target: T2, Ovine COX-1; test: COX-1 peroxidase activity IC50 assay with TMPD (Example 6); format: biochemical
Procedure: as §1

Compound: COc1cc2oc(-c3ccccc3)cc(=O)c2c(O)c1O [5,6-Dihydroxy-7-methoxyflavone]
- inhibition at 20 µg/mL (recombinant ovine COX-2 [1]): 59%
- inhibition at 20 µg/mL (Ovine COX-1 [2]; 20 μg/mL): 75%

Compound: O=c1cc(-c2ccccc2)oc2c(O)c(O)ccc12 [7,8-Dihydroxyflavone]
- inhibition at 20 µg/mL (recombinant ovine COX-2 [1]): 63%
- inhibition at 20 µg/mL (Ovine COX-1 [2]; 20 μg/mL): 74%

Compound: Oc1cc(O)c2c(c1)O[C@H](c1ccc(O)c(O)c1)[C@@H](O)C2 [(+)-Catechin]
- IC50 (COX-1; isolated from natural source): 80 µM

Compound: CC(=O)Oc1ccccc1C(=O)O [Aspirin]
- Reduction of colorectal cancer mortality (colorectal cancer): 50%
- Reduction of incidence of colorectal cancer (colorectal cancer): 40-50%

Compound: Cc1ccc(-c2cc(C(F)(F)F)nn2-c2ccc(S(N)(=O)=O)cc2)cc1 [Celecoxib]
- Change in mean BMI, 30 days [3]: −.68 kg/m^2
- Change in mean BMI, 90 days [3]: −1.07 kg/m^2
- Change in mean weight, 30 days [3]: -2.00 kg
- Change in mean weight, 90 days [3]: -3.17 kg
- Mean absolute change in WOMAC score Function-30 days [4]: −0.37
- Mean absolute change in WOMAC score Function-60 days [4]: −6.97
- Mean absolute change in WOMAC score Function-90 days [4]: −2.78
- Mean absolute change in WOMAC score Pain-30 days [4]: −4.23
- Mean absolute change in WOMAC score Pain-60 days [4]: −22.31
- Mean absolute change in WOMAC score Pain-90 days [4]: −16.67
- Mean absolute change in WOMAC score Stiffness-30 days [4]: −8.65
- Mean absolute change in WOMAC score Stiffness-60 days [4]: −9.62
- Mean absolute change in WOMAC score Stiffness-90 days [4]: −13.54

Compound: Oc1ccc([C@H]2Oc3cc(O)cc(O)c3C[C@H]2O)cc1 [Epiafzelechin]
- IC50 (COX-1; isolated from Celastrus orbiculatus): 15 µM
- Anti-inflammatory activity, carrageenin-induced mouse paw edema (mouse): demonstrated anti-inflammatory activity

Compound: CC(C)Cc1ccc(C(C)C(=O)O)cc1 (centres unmarked) [Ibuprofen]
- Reduction of newly synthesized LTB4 [5]: 20%

Compound: COc1c(O)cc(O)c2c(=O)cc(-c3ccccc3)oc12 [Wogonin]
- inhibition at 20 µg/mL (Ovine COX-1 [2]): 16%

Compound: O=c1cc(-c2ccccc2)oc2cc(O)c(O)c(O)c12 [baicalein]
- inhibition at 20 µg/mL (Ovine COX-1 [2]; 20 μg/mL): 107%

Compound: O=C(O)[C@H]1O[C@@H](Oc2cc3oc(-c4ccccc4)cc(=O)c3c(O)c2O)[C@H](O)[C@@H](O)[C@@H]1O [baicalin]
- inhibition at 20 µg/mL (recombinant ovine COX-2 [1]): 97%
- inhibition at 20 µg/mL (Ovine COX-1 [2]; 20 μg/mL): 95%

Compound: Oc1cc(O)c2c(c1)OC(c1ccc(O)c(O)c1)C(O)C2 (centres unmarked) [catechin]
- IC50 for 5-LO (potato 5-lipoxygenase): 1.38 μg/mL/unit of enzyme
- IC50 for COX-2 (recombinant ovine COX-2 [6]; normalized to enzyme units): 0.42 μg/mL/unit
- IC50 for COX-1 (Ovine COX-1 [7]; normalized to enzyme units): 0.11 μg/mL/unit of enzyme

Compound: Oc1cc(O)c2c(c1)O[C@H](c1ccc(O)c(O)c1)[C@H](O)C2 [epicatechin]
- IC50 (recombinant ovine COX-2 [6]): 68.9 µM
- IC50 (Ovine COX-1 [7]): 24.1 µM
